Measured values published in patent US9464326B2, “Total and phosphorylated IL-1 receptor-associated kinase-1 and IL-1 receptor-associated kinase-4 as a biomarker for cancer progression and chemotherapy resistance” (University of Maryland, Baltimore, priority 2012, dated 2016).

Key:
[1] = test system: CCRF-CEM cells; test: CCRF-CEM T-ALL numbers in NSG mice (flow cytometry); type: in vivo
Description: CCRF-CEM (2×10^6) cells were injected intravenously (i.v.) into female NOD.Cg-Prkdc^scid Il2rg^tm1WJl/SzJ IL2RG (NSG) mice (Jackson Laboratories, Bar Harbor, Me.). […] In some experiments mice were injected i.v. with TLR1-TLR2 ligand (2.5 μg) two days after injecting cells. In other experiments mice were injected intraperitoneally (i.p.) with IRAK-1,-4 inhibitor (10 mg/kg) 3, 6, and 9 days (CCRF-CEM cells) or 7, 10, and 13 days (patient T-ALL cells) after detecting CD7^+ T-ALL cells in circulation. The numbers of T-ALL cells in the bone marrow, spleen, liver, and in circulation were determined by staining cells with anti-human CD7 and/or CD5. To compare T-ALL numbers between groups, 10 μl of calibration microbeads (BD Pharmingen) were added to 50 μl of blood (or marrow or spleen suspensions) and the flow cytometry instrument gates were set to count a constant number of beads.
The therapeutic efficacy of IRAK-1,-4 inhibitor was examined in mice with T-ALL. NSG mice were injected (i.v.) with the human T-ALL cell line CCRF-CEM. Mice were intraperitoneally (i.p.) injected with IRAK-1,-4 inhibitor 3, 6, and 9 days after T-ALL cells were detected in the circulation. The number of T-ALL cells in various tissues was determined four days after the final IRAK-1,-4 inhibitor injection by staining cells with human-specific anti-CD7 antibodies and analyzing by flow cytometry. The number of T-ALL cells was counted after normalization to calibration beads.
The physiological significance of activating TLR-IRAK signaling and T-ALL expansion was examined in vivo. NSG mice harboring CCRF-CEM cells were injected with either TLR1-TLR2 ligand or PBS. One week later the numbers of CD5+CD7+ T-ALL cells in bone marrow and spleen were determined by flow cytometry (FIG. 5, left). To normalize the T-ALL cell count between mice, an equal volume of calibration beads was added to blood samples and the instrument gates were set to count a constant number of beads.

[2] = test system: T-ALL cells from patients; test: Proliferation (3H-thymidine) of patient T-ALL cells; type: cell-based, human
Source text: CCRF-CEM, CEM/C1, CEM/C2, CEM-C7, Jurkat, Loucy, Molt-4, HSB-2, SUP-T1, Hut 78, HH, Hut 102, MO, and H9 T-leukemia and T-lymphoma cell lines were purchased from the American Type Culture Collection (Manassas, Va., USA). All of the cell lines were initially expanded and cryopreserved within one month of receipt. Cells were typically used for 6 months at which time a fresh vial of cryopreserved cells was used. Total T cells from healthy donors were isolated via negative selection followed by positive selection using a CD3+ selection kit (Invitrogen, Carlsbad, Calif.). T cells were isolated from patients with T-ALL bone marrow or peripheral blood samples containing more than 70% leukemia cells using a CD2+ isolation kit (STEMCELL Technologies, Vancouver, Canada). All tissues were collected under institutional IRB-approved protocols and all participants gave written informed assent/consent. For in vitro experiments, T-ALL cells were cultured in AIM-V medium supplemented with 20% human AB serum in the presence of recombinant human stem cell factor (50 ng/mL; Amgen, Thousand Oaks, Calif.), insulin (20 nM; Sigma-Aldrich, St Louis, Mo., USA) and IL-7 (50 ng/mL; R&D Systems, Minneapolis, Minn., USA). […]
Cells were cultured in a 96-well plate (Corning Costar, Corning, N.Y., USA) with various concentrations of TLR ligands 1-9, starting at 10 μg/ml, in a final volume of 200 ul. […] After this time point, cells were harvested with a Packard Filter-Mate-96 cell harvester (Perkin Elmer, Waltham, Mass., USA) and counted on Packard Top Count-NXT (Perkin Elmer, Waltham, Mass., USA). Results were expressed as average counts per minute (cpm). […] Forty-eight hours later, proliferation (±SD) was determined by ^3H-thymidine incorporation. Alternatively, apoptosis was measured by flow cytometry after staining cells with Annexin-V (BD Pharmingen, San Diego, Calif., USA) and propidium iodide (Sigma). Cell number was counted under microscopy by staining cells with trypan blue.

[3] = test system: A375 cells; test: Milliplex cytokine/chemokine array; type: cell-based, human
Description: FIG. 7. TLR and TLR signaling-related protein expression profiles on melanoma cell lines. (A) The expression levels of TLR1-TLR10 and various TLR-related proteins were examined by Western blot in samples from human melanoma cell lines. (B) The TLR1-TLR2 ligand Pam3CysK4 was added to A375 cells for 48 hrs. Cytokine and chemokine production by was determined using a Milliplex cytokine/chemokine array. (C) IRAK-1,-4 inhibitor or vehicle alone (DMSO) was added to melanoma cells for 48 hrs. The level of phosphorylated and non-phosphorylated p65 subunit of NF-KB was determined by Western blot. (D) Cytokine and chemokine levels in the supernatant A375 cell culture were examined using a Milliplex cytokine/chemokine array 48 hours after adding IRAK-1,-4 inhibitor or DMSO. ANOVA; **P<0.001, *P<0.05.
FIG. 19. Inhibiting IRAK-1/-4 abrogates the effects of TLR1-TLR2 agonist in melanoma cells. A375 cells were cultured in the presence or absence of TLR1-TLR2 ligand Pam3CysK4 (2.5 μg/ml) and in the presence of the IRAK-1/-4 inhibitor (10 μM) or vehicle control DMSO. Cytokine and chemokine production by was determined using a Milliplex cytokine/chemokine array 48 hrs. later.
A375 cells were cultured in the presence or absence of TLR1-TLR2 ligand Pam3CysK4 (2.5 μg/ml) and in the presence of the IRAK-1,-4 inhibitor (10 μM) or vehicle control DMSO. (FIG. 19). Therefore, activation of IRAK-1,-4 signaling on melanoma cells in vivo might contribute to cancer progression by inducing the expression of various chemokines and cytokines beneficial to cancer cell survival, division, and/or angiogenesis.

[4] = 10 mg/kg i.p. days 3, 6, 9, FIG. 17
[5] = 10 mg/kg i.p. days 3, 6, 9, vs DMSO or untreated, p<0.05
[6] = TLR1-TLR2 ligand 2.5 μg i.v. vs PBS, p<0.05, FIG. 5

O=C(Nc1nc2ccccc2n1CCN1CCOCC1)c1cccc([N+](=O)[O-])c1 [IRAK-1,-4 inhibitor]
T-ALL cell numbers in the liver [1, 4]: only moderately reduced | T-ALL cell numbers in the spleen [1, 4]: only moderately reduced | number of CD7+ T-ALL cells in circulation [1, 5]: significantly reduced | number of CD7+ T-ALL cells in the bone marrow [1, 5]: significantly reduced | proliferation of patient T-ALL samples ([2]; samples with phosphorylated IRAK-1,-4, vs equal volume DMSO, FIG. 6D): Every sample exhibited reduced proliferation | production of VEGF, CXCLI, MCP 1, PDGF-A and FGF-2 ([3]; 48 hrs, absence of TLR agonists, p<0.05, FIG. 7D): significantly reduced | cytokine/chemokine effects of TLR1-TLR2 agonist ([3]; IRAK-1,-4 inhibitor 10 μM with Pam3CysK4 2.5 μg/ml, FIG. 19): decreased the effects of TLR1-TLR2 agonist

tripalmitoyl-S-(bis(palmitoyloxy)propyl)-Cys-Ser-(Lys)3-Lys [Pam3Cysk4]
T-ALL cell number (CD5+CD7+) in the bone marrow [1, 6]: significantly augmented | T-ALL cell number (CD5+CD7+) in the spleen [1, 6]: significantly augmented | proliferation of patient T-ALL samples ([2]; five T-ALL patient samples, TLR1-TLR2 ligand, p<0.01, FIG. 6B): Two of five samples exhibited increased proliferation | concentrations giving increased proliferation ([2]; responding T-ALL patient samples, FIG. 6B): above 1.25 μg/ml | changes in levels of MCP-I, IL-6 and fractalkine ([3]; 48 hrs, FIG. 7B): not statistically significant | levels of GM-CSF and IP-10 ([3]; 48 hrs, p<0.001, FIG. 7B): significantly increased | levels of cytokines and chemokines including VEGF, CXCLI and IL-8 ([3]; 48 hrs, p<0.05, FIG. 7B): significantly augmented
